Data as given in patent publication US11247987B2, “Inhibiting ubiquitin specific peptidase 30” (FORMA Therapeutics, Inc., priority 2017, dated 2022).

Molecular target: T1, human recombinant USP30 (Homo sapiens, UniProt Q70CQ3)
T1 construct: purchased Boston Biochem E-582
T1 sequence (Q70CQ3 1-517): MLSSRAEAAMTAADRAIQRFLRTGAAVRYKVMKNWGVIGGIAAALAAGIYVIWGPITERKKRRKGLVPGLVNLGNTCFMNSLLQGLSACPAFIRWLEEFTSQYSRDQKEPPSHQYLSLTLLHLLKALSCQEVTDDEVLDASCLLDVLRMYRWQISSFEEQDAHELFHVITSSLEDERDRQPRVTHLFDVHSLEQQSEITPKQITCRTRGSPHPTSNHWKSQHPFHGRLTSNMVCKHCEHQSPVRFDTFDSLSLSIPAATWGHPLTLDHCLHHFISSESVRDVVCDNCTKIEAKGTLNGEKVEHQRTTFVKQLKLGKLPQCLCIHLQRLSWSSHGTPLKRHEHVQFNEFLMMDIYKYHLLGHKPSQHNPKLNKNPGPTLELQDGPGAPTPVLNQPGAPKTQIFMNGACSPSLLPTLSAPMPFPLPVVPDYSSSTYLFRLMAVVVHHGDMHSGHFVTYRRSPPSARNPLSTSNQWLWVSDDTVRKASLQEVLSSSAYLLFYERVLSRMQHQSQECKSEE
Experiment: Ubiquitin-Rhodamine 110 Assay for USP30 Activity (USP30 Inhibitor Biochemical Assay)
Settings: 0.2 nM USP30, 25 nM Ub-Rh110, 30 min preincubation, 30 min at room temperature; read-out: USP30 potency range (USP30 biochemical IC50 assay, IC50 ranges)
In short: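 Human recombinant USP30 (0.2 nM final) was preincubated 30 min with compound (25 μM to 1.3 nM, 10-point) in Tris pH 8.0, 1 mM GSH, BGG and Triton X-100. Ub-Rh110 was then added for 30 min at room temperature and stopped with citric acid. Fluorescence at 485/535 nm gave % inhibition and a 4-parameter IC50 fit.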

Row | SMILES | IC50 [µM]
1 | N#CN[C@H]1CCC[C@@H]1C(=O)Nc1ncc(C2CCCCC2)s1 [Compound 10-9, (1S,2S)-2-(cyanoamino)-N-(5-cyclohexyl-1,3-thiazol-2-yl)cyclopentane-1-carboxamide] | 1 to 10
2 | N#CN[C@H]1CC[C@H](C(=O)Nc2ncc(C3CCOCC3)s2)C1 [Compound 10-10, (1S,3S)-3-(cyanoamino)-N-[5-(oxan-4-yl)-1,3-thiazol-2-yl]cyclopentane-1-carboxamide] | 1 to 10
3 | N#CN[C@@H]1CC[C@@H](C(=O)Nc2ncc(C3CCOCC3)s2)C1 [Compound 10-11, (1R,3R)-3-(cyanoamino)-N-[5-(oxan-4-yl)-1,3-thiazol-2-yl]cyclopentane-1-carboxamide] | 10 to 25
4 | N#CN[C@H]1CC[C@@H](C(=O)Nc2ncc(-c3ccccc3)s2)C1 [Compound 12-1, (1R,3S)-3-(cyanoamino)-N-(5-phenyl-1,3-thiazol-2-yl)cyclopentane-1-carboxamide] | 1 to 10
5 | N#CN[C@H]1CC[C@H](C(=O)Nc2ccn(-c3ccccc3)n2)C1 [Compound 12-2, (1S,3S)-3-(cyanoamino)-N-(1-phenyl-1H-pyrazol-3-yl)cyclopentane-1-carboxamide] | 10 to 25
6 | N#CN[C@H]1CC[C@H](C(=O)Nc2ncc(C3CCCCC3)s2)C1 [Compound 12-3, (1S,3S)-3-(cyanoamino)-N-(5-cyclohexyl-1,3-thiazol-2-yl)cyclopentane-1-carboxamide] | 0.1 to 1
7 | N#CN[C@H]1CC[C@H](C(=O)Nc2ncc(-c3ccccc3)s2)C1 [Compound 12-4, (1S,3S)-3-(cyanoamino)-N-(5-phenyl-1,3-thiazol-2-yl)cyclopentane-1-carboxamide] | 1 to 10
8 | N#CN[C@H]1CC[C@H](C(=O)Nc2ccc3c(c2)CCC3)C1 [Compound 12-5, (1S,3S)-3-(cyanoamino)-N-(2,3-dihydro-1H-inden-5-yl)cyclopentane-1-carboxamide] | 10 to 25
9 | N#CN[C@H]1CC[C@H](C(=O)N2CCN(c3ccccc3)CC2)C1 [Compound 12-6, {[(1S,3S)-3-(4-phenylpiperazine-1-carbonyl)cyclopentyl]amino}carbonitrile] | > 25
10 | CC(C)(C)c1cnc(NC(=O)[C@H]2CC[C@@H](NC#N)C2)s1 [Compound 12-7, (1S,3R)-N-(5-tert-butyl-1,3-thiazol-2-yl)-3-(cyanoamino)cyclopentane-1-carboxamide] | 1 to 10
11 | N#CN[C@H]1CCN(C(=O)c2csc(-c3cccc(Cl)c3Cl)n2)C1 [Compound 12-8, {[(3S)-1-[2-(2,3-dichlorophenyl)-1,3-thiazole-4-carbonyl]pyrolidin-3-yl]amino}carbonitrile] | 1 to 10
12 | N#CNC1CCN(C(=O)c2csc(-c3ccc(Cl)cc3Cl)n2)CC1 [Compound 12-9, ({1-[2-(2,4-dichlorophenyl)-1,3-thiazole-4-carbonyl]piperidin-4-yl}amino)carbonitrile] | 1 to 10
